The results in this text go back to US20050203086A1, “Methods of treatment using an EP2 selective receptor agonist” (Pfizer Inc., priority 2004, published 2005).

Structures are written as SMILES.

T1 sequence (P43116 whole entry): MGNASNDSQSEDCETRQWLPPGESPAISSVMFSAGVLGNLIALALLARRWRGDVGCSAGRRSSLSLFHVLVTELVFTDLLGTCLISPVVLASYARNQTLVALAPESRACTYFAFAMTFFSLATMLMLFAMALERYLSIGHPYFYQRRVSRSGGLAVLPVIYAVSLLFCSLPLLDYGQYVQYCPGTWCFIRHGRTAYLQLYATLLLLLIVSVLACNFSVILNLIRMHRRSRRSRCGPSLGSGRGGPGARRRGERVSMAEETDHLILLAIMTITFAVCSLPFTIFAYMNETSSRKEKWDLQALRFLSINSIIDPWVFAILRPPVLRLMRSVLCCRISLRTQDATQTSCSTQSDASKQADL

This assay has as its target T1, prostaglandin E2 type 2 (EP2) receptors (Homo sapiens, UniProt P43116).
T1 construct: These full length receptors are used to prepare 293S cells expressing the EP1, EP2, EP3 and EP4 receptors; expressed in transfected cells; membranes
The experiment in a line: Assay for Binding to Prostaglandin E2 Receptors (3H-prostaglandin E2 displacement, membranes of transfected 293S cells). The conditions noted are these: concentration displacing 50% of specifically bound 3H-prostaglandin E2, 1 hour at 25° C. As to the method: Membrane Preparation: All operations are performed at […]. Transfected cells expressing prostaglandin E2 type 1 receptors (EP1), type 2 (EP2), type 3 (EP3) or type 4 (EP4) receptors are harvested and suspended to 2 million cells per ml in Buffer A [50 mM Tris-HCl (pH 7.4), 10 mM MgCl2, 1 mM EDTA, 1 mM Pefabloc peptide, (Boehringer Mannheim Corp., Indianapolis, Ind.), 10 uM Phosporamidon peptide, (Sigma, St. Louis, Mo.), 1 uM pepstatin A peptide, (Sigma, St. Louis, Mo.), 10 uM elastatinal peptide, (Sigma, St. Louis, Mo.), 100 uM antipain peptide, (Sigma, St. Louis, Mo.)]. The cells are lysed by sonification with a Branson Sonifier (Model #250, Branson Ultrasonics Corporation, Danbury, Conn.) in 2 fifteen second bursts. Unlysed cells and debris are removed by centrifugation, at 100×g for 10 min. Membranes are then harvested by centrifugation at 45,000×g for 30 minutes. […] Resuspended membranes are then stored frozen at −80° C. until use.
Binding Assay: Frozen membranes prepared as above are thawed and diluted to 1 mg protein per ml in Buffer A above. […] The membranes with bound ^3H-prostaglandin E2 are trapped by the filter, while the buffer and unbound ^3H-prostaglandin E2 pass through the filter into waste. Each sample is then washed 3 times with 3 ml of [50 mM Tris-HCl (pH 7.4), 10 mM MgCl2, 1 mM EDTA]. The filters are then dried by heating in a microwave oven.
Typically, PCR (polymerase chain reaction) primers corresponding to the 5′ and 3′ ends of the published full length receptor are made according to the well known methods disclosed above and are used in an RT-PCR reaction using the total RNA from human kidney (for EP1), human lung (for EP2), human lung (for EP3) or human lymphocytes (for EP4) as a source. PCR products are cloned by the TA overhang method into pCR2.1 (Invitrogen, Carlsbad, Calif.) and identity of the cloned receptor is confirmed by DNA sequencing.
Stable cell lines expressing the receptor are established following selection of transfected cells with G418.
As usually defined, the IC50 is the concentration that gives 50% inhibition. Molecule `CCCCc1ccc(CN(Cc2cccc(CC(=O)O)c2)S(=O)(=O)c2cn(C)cn2)cc1` [Example 1r, (3-(((4-Butyl-benzyl)-(1-methyl-1H-imidazole-4-sulfonyl)-amino)-methyl)-Phenyl)-acetic acid] displayed an IC50 of 308 nM.

In turn, `O=C(O)Cc1cccc(CN(Cc2ccc(-n3ccnc3)cc2)S(=O)(=O)c2cccnc2)c1` [Example 1s, (3-(((4-Imidazol-1-yl-benzyl)-(pyridine-3-sulfonyl)-amino)-methyl)-phenyl)-acetic acid] gave an IC50 of 165 nM.

As for `O=C(O)Cc1cccc(CN(Cc2ccc(-c3ncccn3)cc2)S(=O)(=O)c2cccnc2)c1` [Example 1t, (3-(((Pyridine-3-sulfonyl)-(4-pyrimidin-2-yl-benzyl)-amino)-methyl)-phenyl)-acetic acid], the IC50 was determined as 8 nM.

For `O=C(O)Cc1cccc(CN(Cc2ccc(-c3nccs3)cc2)S(=O)(=O)c2cccnc2)c1` [Example 1u, (3-(((Pyridine-3-sulfonyl)-(4-thiazol-2-yl-benzyl)-amino)-methyl)-phenyl)-acetic acid], the IC50 worked out at 7 nM.

Regarding `Cn1cnc(S(=O)(=O)N(Cc2ccc(-c3nccs3)cc2)Cc2cccc(CC(=O)O)c2)c1` [Example 1v, (3-(((1-Methyl-1H-imidazole-4-sulfonyl)-(4-thiazol-2-yl-benzyl)-amino)-methyl)-phenyl)-acetic acid], the concentration for half-maximal inhibition (IC50) is 9 nM.

In turn, `CN(C)c1ccc(CN(Cc2cccc(CC(=O)O)c2)S(=O)(=O)c2cccnc2)cc1` [Example 1w, (3-(((4-Dimethylamino-benzyl)-(pyridine-3-sulfonyl)-amino]-methyl)-phenyl)-acetic acid] yielded an IC50 of 24 nM.

As to `O=C(O)COc1cccc(CN(Cc2ccc(C3CCCCC3)cc2)S(=O)(=O)c2cccnc2)c1` [Example 1x, (3-(((4-Cyclohexyl-benzyl)-(pyridine-3-sulfonyl)-amino)-methyl)-phenoxy)-acetic acid], the IC50 was 160 nM.

With `O=C(O)COc1cccc(CN(CCOc2cc(Cl)cc(Cl)c2)S(=O)(=O)c2cccnc2)c1` [Example 1y, (3-(((2-(3.5-Dichloro-phenoxy)-ethyl)-(pyridine-3-sulfonyl)-amino)-methyl)-phenoxy)-acetic acid], the IC50 was found to be 13 nM.

Turning to `CN(C)c1ccc(CN(Cc2cccc(OCC(=O)O)c2)S(=O)(=O)c2cccnc2)cc1` [Example 1z, (3-(((4-Dimethylamino-benzyl)-(pyridine-3-sulfonyl)-amino)-methyl)-phenoxy)-acetic acid], the half-maximal inhibitory concentration (IC50) turned out to be 19 nM.

For the molecule `O=C(O)Cc1cccc(CN(CCOc2cccc(Cl)c2)S(=O)(=O)c2cccnc2)c1` [Example 2, (3-(((2-(3-Chloro-phenoxy)-ethyl)-(Pyridine-3-sulfonyl)-amino]-methyl)-phenyl)-acetic acid], the half-maximal inhibitory concentration (IC50) was found to be 45 nM.

On to `O=C(O)Cc1cccc(CN(C/C=C/c2cc(Cl)cc(Cl)c2)S(=O)(=O)c2cccnc2)c1` [Example 2a, Trans-(3-(((3-(3,5-Dichloro-phenyl)-allyl)-(pyridine-3-sulfonyl)-amino)-methyl)-phenyl)-acetic acid], for which the concentration for half-maximal inhibition (IC50) worked out at 37 nM.

Take `O=C(O)Cc1cccc(CN(CCOc2cc(Cl)cc(Cl)c2)S(=O)(=O)c2cccnc2)c1` [Example 2b, (3-(((2-(3.5-Dichloro-phenoxy)-ethyl)-(pyridine-3-sulfonyl)-amino)-methyl)-phenyl)-acetic acid]: the IC50 turned out to be 385 nM.

`O=C(O)c1ccc(CCCN(CCSc2cccc(Cl)c2)S(=O)(=O)c2cccnc2)s1` [Example 3a, 5-(3-((2-(3-Chloro-phenylsulfanyl)-ethyl)-(pyridine-3-sulfonyl)-amino)-propyl) thiophene-2-carboxylic acid] displayed an IC50 of 440 nM.

The molecule `O=C(O)COc1cccc(CN(Cc2ccc(-c3nccs3)cc2)S(=O)(=O)c2cccnc2)c1` [Example 3b, (3-(((Pyridine-3-sulfonyl)-(4-thiazol-2-yl-benzyl)-amino)-methyl)-phenoxy)-acetic acid.2TFA] had an IC50 of 7.83 nM.

Consider `O=C(O)c1ccc(CCCN(CCCc2cccc(Cl)c2)S(=O)(=O)c2cccnc2)s1` [Example 4, 5-(3-((3-(3-Chloro-phenyl)-propyl)-(pyridine-3-sulfonyl)-amino)-propyl)-thiophene-2-carboxylic acid], for which the half-inhibitory concentration (IC50) stood at 225 nM.

`COc1ccc(S(=O)(=O)N(CCCc2cccc(Cl)c2)CCCc2ccc(C(=O)O)s2)cc1` [Example 4a, 5-(3-((3-(3-Chloro-phenyl)-propyl)-(4-methoxy-benzenesulfonyl)-amino)-propyl)-thiophene-2-carboxylic acid] came in with a half-inhibitory concentration (IC50) of 795 nM.

For `O=C(O)c1ccc(CCCN(CCCc2cccc(Cl)c2)S(=O)(=O)c2cccc3nsnc23)s1` [Example 4b, 5-(3-((Benzo[1,2.5]thiadiazole-4-sulfonyl)-(3-(3-chloro-phenyl)-propyl)-amino)-propyl)-thiophene-2-carboxylic acid], the IC50 was 440 nM.

In turn, `O=C(O)c1ccc(CCCN(CCCc2cccc(Cl)c2)S(=O)(=O)Cc2ccccc2)s1` [Example 4d, 5-(3-((3-(3-Chloro-phenyl)-propyl)-phenylmethanesulfonyl-amino)-propyl)-thiophene-2-carboxylic acid] gave a 50% inhibitory concentration (IC50) of 175 nM.

For the molecule `O=C(O)c1ccc(CCCN(CCCc2cccc(Cl)c2)S(=O)(=O)c2cccnc2)o1` [Example 4e, 5-(3-((3-(3-Chloro-phenyl)-propyl)-(pyridine-3-sulfonyl)-amino)-propyl)-furan-2-carboxylic acid], the IC50 turned out to be 410 nM.

As to `O=C(O)c1ccc(CCCN(CCCc2cccc(Cl)c2)S(=O)(=O)c2ccc3ccccc3c2)s1` [Example 4f, 5-(3-((3-(3-Chloro-phenyl)-propyl)-(naphthalene-2-sulfonyl)-amino)-propyl)-thiophene-2-carboxylic acid], the IC50 was 705 nM.

The molecule `O=C(O)c1ccc(CCCN(CCCc2cccc(Cl)c2)S(=O)(=O)c2cccc3ccccc23)s1` [Example 4g, 5-(3-((3-(3-Chloro-phenyl)-propyl)-(naphthalene-1-sulfonyl)-amino)-propyl)-thiophene-2-carboxylic acid] gave a 50% inhibitory concentration (IC50) of 720 nM.

`CC(=O)Nc1nc(C)c(S(=O)(=O)N(CCCc2cccc(Cl)c2)CCCc2ccc(C(=O)O)s2)s1` [Example 4h, 5-(3-((2-Acetylamino-4-methyl-thiazole-5-sulfonyl)-(3-(3-chloro-phenyl)-propyl)-amino)-propyl)-thiophene-2-carboxylic acid] returned an IC50 of 210 nM.

In the case of `O=C(O)c1ccc(CCCN(CCCc2cccc(Cl)c2)C(=O)c2cccnc2)s1` [Example 5, 5-(3-((3-(3-Chloro-phenyl)-propyl)-(pyridine-3-carbonyl)-amino)-propyl)-thiophene-2-carboxylic acid], the half-inhibitory concentration (IC50) was found to be 980 nM.

The molecule `O=C(O)c1ccc(CCCN(CCCc2cccc(Cl)c2)C(=O)Cc2ccccn2)s1` [Example 5a, 5-(3-((3-(3-Chloro-phenyl)-propyl)-(pyridin-2-yl-acetyl)-amino)-propyl)-thiophene-2-carboxylic acid] returned a concentration for half-maximal inhibition (IC50) of 355 nM.

In turn, `O=C(O)c1ccc(CCCN(CCCc2cccc(Cl)c2)C(=O)Cc2cccnc2)s1` [Example 5b, 5-(3-((3-(3-Chloro-phenyl)-propyl)-(Pyridin-3-yl-acetyl)-amino)-propyl)-thiophene-2-carboxylic acid] displayed a half-inhibitory concentration (IC50) of 640 nM.
